Entries after “also recorded” stand apart in the source; their conditions may differ.
Assay: Intravenous and buccal pharmacokinetics of Physostigmine in rats (plasma levels by HPLC with fluorimetric detector)
Type: in vivo, male Lewis rats
Details: rat plasma, 200 μg/kg, Physostigmine hemisulfate in normal saline
Procedure: Lewis Rats were used to evaluate the buccal/sublingual delivery of Physostigmine. The Physostigmine drug concentration in rat plasma was determined using a conventional high pressure liquid chromatography analytical procedure which measures drug concentration by fluorimetric detector.
To determine whether Physostigmine would be absorbed by mucosa and produce a sustained plasma level, two separate groups of male Lewis rats, were administered Physostigmine hemisulfate, a salt of Physostigmine, intravenously or buccally in normal saline. The rats weighed approximately 300 g and were fasted overnight prior to dosing. All rats were anesthetized with pentobarbital (50 mg/kg) prior to dosing. The jugular vein was cannulated and attached to a syringe through 3-way stopcock for blood collections. Blood samples (1 ml) were withdrawn through the jugular cannula and replaced with an equal volume of fresh blood (37 degrees C) from separate blood donor rats after each sampling as a function of time. […]
The terminal decay rate constant (k) and the terminal half-life (t1/2) after intravenous administration was calculated by linear regression of the terminal portion of the individual sample In Cp (plasma drug concentration) versus time plot of FIG. 1.

CNC(=O)Oc1ccc2c(c1)[C@]1(C)CCN(C)[C@@H]1N2C [Physostigmine, 1,2,3,3a,8,8a-hexahydro-1,3a,8-trimethylpyrrolo[2,3-b]indol-5-ol methylcarbamate]
half-life (0.2 mg/kg, intravenous, FIG. 1, read-out: plasma half-life (terminal half-life, t1/2)): 25 min
plasma concentration vs. time profile (buccal, esophagus ligated, over eight hours (t1/2 could not be determined), FIG. 2): did not decay for the period of the experiment; also recorded: highly sustained

— patent US6264974A, “Buccal and sublingual administration of physostigmine” (priority 1998, dated 2001)
